One series has as its system IκBα phosphorylation. The experiment in a line: phosphorylation of IκBα induced by Toll-like receptor ligands in RPMI 8226 cells. It counts as cell-based. Conditions: 13 μM. As to the method:
One ml/well of 2×10^6/ml RPMI 8226 cells (#CCL-155C, American Type Culture Collection) were seeded in 6-well plate in LGM-3 medium and cultured for overnight at 37° C., 5% CO2 and 95% humidified air. Formula (IIB-A1) was added to RPMI 8226 cells at the final concentration of 13 μM for 1 hr. DMSO was used as a control. Cells were then stimulated with 50 ng/ml LPS, 2 μg/ml Lipoteichoic acid (LTA) and CpG DNA for various length of time. At the end of each period of stimulation, cells were harvested by centrifugation and cell pellets were washed once in ice-cold 1× Dulbecco's Phosphate buffered Saline (DPBS). To prepare samples for SDS-PAGE, cells were lysed in RIPA buffer (50 mM Tris-HCl, pH7.4, 0.9% NaCl, 1% Triton X-100, 0.25% Na-deoxycholate, 1 mM EDTA, 2 mM Na3VO4 and 1× protease inhibitors cocktail) for 15 min on ice. Cell lysates were cleared by centrifugation at 14,000 rpm, 4° C. for 10 min. Protein concentrations of cell lysates were determined by BCA protein assay kit prior to SDS-PAGE. Equal amount of proteins from various cell lysates were resolved on 10% NuPage MES precast gels and transferred to nitrocellulose membranes according to the manufacturer's instructions. […]

Series [1] in a line: 48 hr cytotoxicity, B16-F10 melanoma. Conditions: mouse, B16-F10 melanoma cells, 10% FBS, individual values. In kind it is cell-based, murine. As to the method: (§1) B16-F10 (ATCC; CRL-6475), DU 145 (ATCC; HTB-81), HEK293 (ATCC; CRL-1573), HT-29 (ATCC; HTB-38), LoVo (ATCC; CCL-229), MDA-MB-231 (ATCC; HTB-26), MIA PaCa-2 (ATCC; CRL-1420), NCI-H292 (ATCC; CRL-1848), OVCAR-3 (ATCC, HTB-161), PANC-1 (ATCC; CRL-1469), PC-3 (ATCC; CRL-1435), RPMI 8226 (ATCC; CCL-155) and U266 (ATCC; TIB-196) are maintained in appropriate culture media. The cells are cultured in an incubator at 37° C. in 5% CO2 and 95% humidified air.
(§2) For cell growth inhibition assays, B16-F10, DU 145, HEK293, HT-29, LoVo, MDA-MB-231, MIA PaCa-2, NCI-H292, OVCAR-3, PANC-1, PC-3, RPMI 8226 and U266 cells are seeded at 1.25×10^3, 5×10^3, 1.5×10^4, 5×10^3, 5×10^3, 1×10^4, 2×10^3, 4×10^3, 1×10^4, 7.5×10^3, 5×10^3, 2×10^4, 2.5×10^4 cells/well respectively in 90 μl complete media into Corning 3904 black-walled, clear-bottom tissue culture plates. 20 mM stock solutions of compounds of Formula II, IIA, and IIB are prepared in 100% DMSO, aliquoted and stored at −80° C. Compounds of Formula II, IIA, and IIB are serially diluted and added in triplicate to the test wells resulting in final concentrations ranging from of 20 μM to 0.2 pM. The plates are returned to the incubator for 48 hours. The final concentration of DMSO is 0.25% in all samples.
(§3) Following 48 hours of drug exposure, 10 μl of 0.2 mg/ml resazurin (obtained from Sigma-Aldrich Chemical Co.) in Mg^2+, Ca^2+ free phosphate buffered saline is added to each well and the plates are returned to the incubator for 3-6 hours. Since living cells metabolize Resazurin, the fluorescence of the reduction product of Resazurin is measured using a Fusion microplate fluorometer (Packard Bioscience) with λex=535 nm and λem=590 nm filters. Resazurin dye in medium without cells was used to determine the background, which is subtracted from the data for all experimental wells.

The subject of a further series is B16-F10 melanoma cells. The experiment in a line: 48 hr cytotoxicity, B16-F10 melanoma. In kind it is cell-based, murine. The settings on record: 10% FBS, individual values. Here is the method:
as §1, §2, §3

In series [2] the test system is bone marrow stromal cells (BMSCs). The experiment in a line: viability of MM patient-derived bone marrow stromal cells (BMSCs). In kind it is cell-based. An excerpt:
Besides nuclear condensation, NF-KB inhibitor triggered proteolytic cleavage of poly (ADP ribose) polymerase (PARP), a hallmark of apoptosis.

The test system of series [3] is TNF-α induced nuclear factor-κB (NF-κB) activation. Briefly: HEK293 NF-κB/Luciferase reporter cell line. In kind it is cell-based. Background: Reporter assays use an easily measured gene product as a stand-in for the process of interest.
Series [4] deals with NF-κB DNA binding activity. The experiment in a line: NF-κB DNA binding activity, EMSA, PC-3. It counts as cell-based. The settings on record: TNF-α. On the technique in general: Mobility shift assays separate free from complexed probe on a gel.
Series [5] concerns NF-κB p65 subunit nuclear translocation. In kind it is cell-based. The settings on record: LPS-stimulated RAW264.7; 5, 10 and 20 μM. Here is the method: Cells were pretreated with NPI-1387 (compound 24 under scheme 4 above) at 5, 10 and 20 μM for 1 hr, and then stimulated with 50 ng/ml LPS for 30 min. Coverslips were transferred to clean plates, washed twice in Dulbecco's phosphate buffered saline (DPBS), fixed in 10% formaldehyde for 10 min, and permeabilized with 0.2% Triton X-100 for additional 10 min. Blocking medium (DPBS, 2% BSA, 0.1% Triton X-100) was added for 2 h, and removed by aspiration. Polyclonal goat anti-p65 antibody (Santa Cruz Biotechnology) was added at a 1:1000 dilution for 1 hr. The wells were washed 3 times with DPBS containing 0.1% Triton X-100, and […] of Alexa-488-conjugated anti-goat antibody (1:1000 dilution, Molecular Probes) were added for 30 min. Wells were washed again, and the coverslips were mounted face-down on microscope slides using Vectashield (Vector) mounting medium. Slides were observed under an Olympus fluorescent microscope, images acquired using a Magnafire digital camera, and processed using Adobe Photoshop.

Series [6] has as its system MM cells with IL-6 or IGF-1. The experiment in a line: protective effects of MM bone marrow microenvironment. It counts as cell-based.

Structures are written as SMILES. pIC50: −log10 of the molar value. Like-named read-outs stand apart in the source and are kept apart here.

On to `C=C[C@@]1(C)CCC=C2[C@H]1CC[C@@H]1[C@](C)(C(=O)NC3CCCCC3)CCC[C@@]21C` [Formula (IIB-A1), N-Cyclohexylamide Derivative of TTL], for which the “phosphorylation of IκBα induced by Toll-like receptor ligands (LTA, CpG DNA)” value is “inhibits the phosphorylation of IκBα induced by Toll-like receptor ligands” in the series with IκBα phosphorylation; “inhibits the phosphorylation of IκBα induced by LTA and CpG DNA” with IκBα phosphorylation (listed as formula (IIB-A1)).

On to `C=CC(=O)C1(C)CCCC2(C)C3=CCC(C)(C=C)C[C@@H]3CC[C@H]12` (stereo in doubt) [NPI-1387, 1-[(1S,4aS,7R)-1,4a,7-Trimethyl-7-vinyl-1,2,3,4,4a,6,7,8,8a,9,10,10a-dodecahydro-1-phenanthrenyl]-2-propen-1-one], for which the cytotoxicity at 48 h in series [1] is 94%. For the same compound, the “% cytotox” value in the series with B16-F10 melanoma cells stood at 92%. Also, the negative-log IC50 (pIC50) – broadly, −log10 of the IC50, conventionally taken in molar units – in the series on B16-F10 melanoma cells was 5.12; in the series with B16-F10 melanoma cells (Mus musculus, B16-F10, 48 h) it was 5.21. The “viability of bone marrow stromal (stem) cells” value is “does not affect the viability of bone marrow stem cells” in series [2] and “does not affect the viability” in series [2] (listed as NF-KB inhibitor). In series [3], the “TNF-α induced NF-κB activation” value is “reduced TNF-α induced nuclear factor-κB (NF-κB) activation”. Also, the “NF-κB DNA binding activity” value in series [4] was “inhibits the DNA binding activity of NF-κB in a dose-dependent manner”. In addition, the “nuclear translocation of NF-κB (p65) / activated IRAK1” value in series [5] was “inhibits the NF-κB p65 subunit nuclear translocation in a dose-dependent manner”. In addition, the “protective effects of IL-6 or IGF-1” value in series [6] is given as “does overcome the protective effects of IL-6 or IGF-1”.
